Earlier results in patent US6746695B1, “Pharmaceutical preparations of bioactive substances extracted from natural sources” (Armadillo Pharmaceuticals, Inc., priority 1998, dated 2004).
Read-outs that look alike come from different tables or passages of the source.

Columns and labels:
[1] = rats
[2] = mice
[3] = chickens
[4] = Dogs
prostoglandin synthetase = target: T1, prostoglandin synthetase (Bos taurus, UniProt O62664); conditions: enzyme prepared from bovine seminal vesicles; compared with aspirin
T1 construct: prostoglandin synthetase prepared from bovine seminal vesicles; from tissue; host or cells: bovine seminal vesicles
T1 sequence (O62664 25-600): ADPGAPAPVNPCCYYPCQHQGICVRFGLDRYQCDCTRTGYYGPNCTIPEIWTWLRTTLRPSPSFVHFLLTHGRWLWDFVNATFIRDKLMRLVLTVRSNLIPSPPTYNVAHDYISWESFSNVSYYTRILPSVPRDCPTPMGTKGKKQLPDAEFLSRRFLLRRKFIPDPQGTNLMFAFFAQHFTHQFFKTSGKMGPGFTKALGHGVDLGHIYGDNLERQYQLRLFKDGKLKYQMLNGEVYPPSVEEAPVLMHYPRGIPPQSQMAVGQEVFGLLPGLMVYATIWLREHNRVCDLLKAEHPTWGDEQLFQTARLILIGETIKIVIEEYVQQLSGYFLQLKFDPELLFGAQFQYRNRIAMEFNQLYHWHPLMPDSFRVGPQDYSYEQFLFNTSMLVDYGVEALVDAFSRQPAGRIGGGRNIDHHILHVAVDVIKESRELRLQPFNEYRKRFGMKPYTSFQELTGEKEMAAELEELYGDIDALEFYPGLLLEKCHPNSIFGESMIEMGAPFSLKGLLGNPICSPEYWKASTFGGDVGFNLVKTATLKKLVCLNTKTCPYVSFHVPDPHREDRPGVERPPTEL

SMILES | food intake [1] | food intake [2] | food intake [3] | weight reduction [4] | potency as inhibitor of prostoglandin synthetase relative to aspirin (prostoglandin synthetase)
CO[C@H]1[C@@H](OC)C[C@@H](O[C@@H]2O[C@H](CO)[C@@H](O)[C@H](O)[C@H]2O)/C(=C\C#N)[C@@H]1O [Simmondsin] | reducing food intake | reducing food intake | reducing food intake | useful weight reduction agent | –
COc1cc2c(cc1OC)[C@@H]1C[C@H](C[C@H]3CCCCN31)OC(=O)/C=C\c1ccc(O)c-2c1 [cryogenine] | – | – | – | – | more than twice as potent as aspirin
COc1ccc2c(c1OC)-c1cc(ccc1O)/C=C\C(=O)O[C@H]1C[C@@H]3CCCCC3[C@H]2C1 (stereo partly drawn) [nesodine] | – | – | – | – | more than twice as potent as aspirin
